Assay results reported in PubChem BioAssay AID248 (DTP/NCI, 2004).
Inconclusive results and toxic doses are left out. Rule as the data show it: active = T/C of 150% or more; inactive = T/C below 125%.

System: L1210 leukemia ip in BDF1 mice, survival T/C
Test: NCI In Vivo Anticancer Drug Screen. Data for tumor model L1210 Leukemia (intraperitoneal) in B6D2F1 (BDF1) mice
Conditions: endpoint: mean survival time, higher = longer survival
In short: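 Tumor cells were implanted, animals were treated, and survival was followed. The result divides the treated measurement by the vehicle-control measurement.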

[1] = dose: 100.0 mg/kg/injection, schedule: Q01DX009 (ip), vehicle: saline with Tween-80

Measured: T/C

CC(C)N(C(=O)Nc1cccc(C(F)(F)F)c1)C1CCCCC1
inactive: dose: 100.0 mg/kg/injection, schedule: Q01DX009 (ip), vehicle: gum acacia 90 % of control | dose: 200.0 mg/kg/injection, schedule: Q01DX009 (ip), vehicle: gum acacia 98 % of control | dose: 400.0 mg/kg/injection, schedule: Q01DX009 (ip), vehicle: gum acacia 88 % of control

C=COC(=O)c1ccccc1
inactive: [1] 98 % of control | dose: 100.0 mg/kg/injection, schedule: Q04DX002 (ip), vehicle: saline with Tween-80 93 % of control | dose: 200.0 mg/kg/injection, schedule: Q01DX009 (ip), vehicle: saline with Tween-80 98 % of control | dose: 200.0 mg/kg/injection, schedule: Q04DX002 (ip), vehicle: saline with Tween-80 93 % of control | dose: 400.0 mg/kg/injection, schedule: Q01DX009 (ip), vehicle: saline with Tween-80 95 % of control | dose: 400.0 mg/kg/injection, schedule: Q04DX002 (ip), vehicle: saline with Tween-80 93 % of control

CC(=O)c1cccc(NC(=S)NC(=O)/C=C/c2ccccc2)c1
inactive: dose: 50.0 mg/kg/injection, schedule: Q01DX009 (ip), vehicle: saline with Tween-80 92 % of control | [1] 94 % of control | dose: 100.0 mg/kg/injection, schedule: Q04DX003 (ip), vehicle: saline with Tween-80 100 % of control | dose: 200.0 mg/kg/injection, schedule: Q04DX003 (ip), vehicle: saline with Tween-80 103 % of control
